± gives the standard deviation of the averaged measurements.
Test system: HepaRG
Assay: LDH release cytotoxicity, % of total lysis control; higher = more cytotoxic
Settings: 48 h
How it was run: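 The CytoTox-ONE kit was used to read LDH in 50 µL spent medium as resorufin fluorescence on a Tecan Safire, with 0.1% Triton X added to total lysis wells. Beforehand, single-lot HepaRG cells on collagen I-coated 96-well plates had been exposed in duplicate for 48 h to eight-point half-log series (top 100 µM) in serum-free induction medium containing 0.5% DMSO. Percent cytotoxicity was normalized against on-plate vehicle and total lysis controls and averaged over duplicates.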

COc1cc(OC)nc(NC(=O)NS(=O)(=O)c2ncccc2OCC(F)(F)F)n1 [Trifloxysulfuron-sodium]
Settings	LDH release cytotoxicity [%]
0.03162 µM	-1.39 ± 0.15
0.1 µM	-0.662 ± 0.68
0.3162278 µM	-1.7 ± 1.1
1 µM	-1.75 ± 1.3
3.16228 µM	-1.37 ± 0.17
10 µM	-1.12 ± 0.68
31.6228 µM	-1.62 ± 0.26
100 µM	0.885 ± 0.33

Cc1ccccc1Cl [2-Chlorotoluene]
Settings	LDH release cytotoxicity [%]
0.03162 µM	-1.99 ± 0.36
0.1 µM	-1.94 ± 0.73
0.3162278 µM	-2.27 ± 0.5
1 µM	-1.84 ± 0.56
3.16228 µM	-2.6 ± 0.59
10 µM	-1.26 ± 0.43
31.6228 µM	-0.387 ± 0.48
100 µM	0.838 ± 0.49

CC1CC2C3CCC4=CC(=O)C=CC4(C)C3(F)C(O)CC2(C)C1(O)C(=O)COP(=O)(O)O (configuration not stated) [Dexamethasone sodium phosphate]
Settings	LDH release cytotoxicity [%]
0.03162 µM	-1.41 ± 1.1
0.1 µM	-1.19 ± 0.21
0.3162278 µM	-0.881 ± 0.18
1 µM	-1.653 ± 0.0034
3.16228 µM	-1.03 ± 0.27
10 µM	-1.06 ± 0.61
31.6228 µM	-0.535 ± 0.093
100 µM	-0.295 ± 0.86

CC(=O)c1ccc2c(c1)C(NC(=O)c1ccc(F)cc1)C(O)C(C)(C)O2 (configuration not stated) [Carabersat]
Settings	LDH release cytotoxicity [%]
0.0308322 µM	-0.845 ± 0.35
0.0975 µM	-1.53 ± 0.47
0.308322 µM	-2.26 ± 1.3
0.975 µM	-2.21 ± 0.25
3.0832207 µM	-1.81 ± 0.28
9.75 µM	-1.6 ± 0.32
30.832207 µM	-1.02 ± 0.098
97.5 µM	0.388 ± 0.96

C=C(C)C1Cc2c(ccc3c2OC2COc4cc(OC)c(OC)cc4C2C3=O)O1 (configuration not stated) [Rotenone]
Settings	LDH release cytotoxicity [%]
0.03162 µM	-3.41 ± 0.1
0.1 µM	-3.52 ± 0.84
0.3162278 µM	-4.58 ± 0.21
1 µM	4.61 ± 1.4
3.16228 µM	19.6 ± 4.5
10 µM	48.4 ± 1.8
31.6228 µM	71.8 ± 1.5
100 µM	72.3 ± 0.95

NC(=O)N=NCc1ccc([N+](=O)[O-])o1 [Nitrofurazone]
Settings	LDH release cytotoxicity [%]
0.03162 µM	-0.299 ± 0.59
0.1 µM	-1.51 ± 0.4
0.3162278 µM	-1.48 ± 0.51
1 µM	-1.87 ± 0.52
3.16228 µM	-1.76 ± 0.92
10 µM	-0.788 ± 0.29
31.6228 µM	-0.997 ± 0.33
100 µM	0.128 ± 0.43

Clc1ccccc1-c1nnc(-c2ccccc2Cl)nn1 [Clofentezine]
Settings	LDH release cytotoxicity [%]
0.03162 µM	-1.43 ± 0.094
0.1 µM	-0.835 ± 0.41
0.3162278 µM	-0.246 ± 0.27
1 µM	-1.9 ± 0.72
3.16228 µM	-0.967 ± 0.31
10 µM	-1.22 ± 0.43
31.6228 µM	-0.912 ± 0.23
100 µM	0.757 ± 0.29

CCn1nc(Cc2ccccc2)cc1C1CCN(CC2CC(N(C)C(C(=O)O)C(C)C)CC2c2cccc(F)c2)CC1 (configuration not stated) [MK-578]
Settings	LDH release cytotoxicity [%]
0.03162 µM	-1.06 ± 0.49
0.1 µM	-1.8 ± 0.42
0.3162278 µM	-1.85 ± 0.13
1 µM	-2.168 ± 0.0097
3.16228 µM	-2.16 ± 0.039
10 µM	-1.47 ± 0.29
31.6228 µM	-1.08 ± 0.3
100 µM	9.55 ± 0.94

ClC1=C(Cl)C2(Cl)C3C4CC(C5OC45)C3C1(Cl)C2(Cl)Cl (configuration not stated) [Dieldrin]
Settings	LDH release cytotoxicity [%]
0.03162 µM	-0.556 ± 0.44
0.1 µM	-1.67 ± 0.84
0.3162278 µM	-1.33 ± 0.11
1 µM	-1.987 ± 0.015
3.16228 µM	-2.14 ± 0.65
10 µM	-0.0152 ± 1.5
31.6228 µM	-0.473 ± 0.01
100 µM	2.21 ± 0.079

COP(=S)(OC)Oc1nc(Cl)c(Cl)cc1Cl [Chlorpyrifos-methyl]
Settings	LDH release cytotoxicity [%]
0.0314647 µM	-1.653 ± 0.012
0.0995 µM	-0.997 ± 0.086
0.3146466 µM	-0.895 ± 1.2
0.995 µM	-1.1 ± 0.81
3.14647 µM	-1.09 ± 0.5
9.95 µM	-0.401 ± 0.0061
31.4647 µM	0.323 ± 0.39
99.5 µM	3.84 ± 0.34

CC(O)CO (configuration not stated) [1,2-Propylene glycol]
Settings	LDH release cytotoxicity [%]
0.03162 µM	-1.3 ± 0.42
0.1 µM	-0.939 ± 1.1
0.3162278 µM	-1.49 ± 0.33
1 µM	-1.94 ± 0.42
3.16228 µM	-1.55 ± 0.095
10 µM	-1.06 ± 0.055
31.6228 µM	-1.08 ± 0.23
100 µM	0.548 ± 0.21

C=C(C)C(=O)OCCC(F)(F)C(F)(F)C(F)(F)C(F)(F)C(F)(F)C(F)(F)F [6:2 Fluorotelomer methacrylate]
Settings	LDH release cytotoxicity [%]
0.03162 µM	-0.461 ± 0.18
0.1 µM	0.735 ± 1.2
0.3162278 µM	0.518 ± 0.41
1 µM	-0.0542 ± 0.29
3.16228 µM	0.38 ± 0.35
10 µM	0.535 ± 0.98
31.6228 µM	0.834 ± 0.34
100 µM	1.55 ± 0.43

O=C(Nc1ccc(Cl)cc1)Nc1ccc(Cl)c(Cl)c1 [Triclocarban]
Settings	LDH release cytotoxicity [%]
0.03162 µM	-2.18 ± 0.41
0.1 µM	-1.67 ± 0.93
0.3162278 µM	-1.81 ± 0.65
1 µM	-1.44 ± 1.4
3.16228 µM	-1.83 ± 0.3
10 µM	-0.606 ± 2.2
31.6228 µM	-1.24 ± 0.34
100 µM	0.167 ± 2

ClC(Cl)(Cl)c1ccccc1 [Benzotrichloride]
Settings	LDH release cytotoxicity [%]
0.03162 µM	-0.669 ± 1.1
0.1 µM	-1.85 ± 0.77
0.3162278 µM	-1.72 ± 0.38
1 µM	-1.748 ± 0.0065
3.16228 µM	-1.92 ± 0.31
10 µM	-2.01 ± 0.6
31.6228 µM	-1.18 ± 0.47
100 µM	-0.246 ± 0.61

Cn1c(=O)cc(Oc2ccc(F)cc2F)c2cnc(NCC(C)(C)O)nc21
Settings	LDH release cytotoxicity [%]
0.03162 µM	-1.61 ± 0.48
0.1 µM	-1.64 ± 0.72
0.3162278 µM	-0.855 ± 0.66
1 µM	-0.86 ± 0.062
3.16228 µM	-1.12 ± 0.3
10 µM	-1.19 ± 0.22
31.6228 µM	-0.929 ± 0.018
100 µM	-1.1 ± 0.89

CCOP(=S)(OCC)SCSP(=S)(OCC)OCC [Ethion]
Settings	LDH release cytotoxicity [%]
0.03162 µM	-0.671 ± 0.69
0.1 µM	-1.31 ± 0.3
0.3162278 µM	-1.54 ± 0.12
1 µM	-1.6 ± 0.47
3.16228 µM	-1.07 ± 0.078
10 µM	-1.06 ± 0.23
31.6228 µM	-2.53 ± 0.069
100 µM	-0.532 ± 0.36

O=[N+]([O-])c1ccccc1 [Nitrobenzene]
Settings	LDH release cytotoxicity [%]
0.03162 µM	-0.035 ± 0.65
0.1 µM	-0.746 ± 0.34
0.3162278 µM	-0.739 ± 0.36
1 µM	-0.928 ± 0.55
3.16228 µM	-1.24 ± 0.27
10 µM	-0.372 ± 0.35
31.6228 µM	-0.298 ± 1.3
100 µM	1.13 ± 0.81

O=C(O)c1ccc([N+](=O)[O-])cc1 [4-Nitrobenzoic acid]
Settings	LDH release cytotoxicity [%]
0.03162 µM	-2.11 ± 0.46
0.1 µM	-1.22 ± 0.03
0.3162278 µM	-0.728 ± 0.58
1 µM	-0.721 ± 1.3
3.16228 µM	-1.62 ± 0.43
10 µM	-0.906 ± 0.7
31.6228 µM	-0.392 ± 0.1
100 µM	1.32 ± 1.1

Cc1ccc(Cl)cc1 [4-Chlorotoluene]
Settings	LDH release cytotoxicity [%]
0.031623 µM	-0.192 ± 0.14
0.1 µM	-1.27 ± 2.3
0.316228 µM	-1.26 ± 0.55
1 µM	-2.78 ± 0.39
3.16228 µM	-2.43 ± 0.42
10 µM	-1.55 ± 1.5
31.6228 µM	-1.15 ± 0.57
100 µM	1.18 ± 0.3

— the supplement of paper PMC7840683
